Values of other authors as cited in patent US4542021A, “Antitumor compositions for non-injection administration” (Yamasa Shoyu Kabushiki Kaisha, priority 1978, dated 1985).

Conditions: in combination with a cytidinedeaminase inhibitor such as tetrahydrouridine; cited from earlier work

## Nc1ccn([C@@H]2O[C@H](CO)[C@@H](O)[C@@H]2O)c(=O)n1 [ara-C, 1-β-D-arabinofuranosyl cytosine]
  effectiveness of oral administration: effective in combination with a cytidinedeaminase inhibitor such as tetrahydrouridine
